Source: US20250176599A1, “FLAVOR COMPOSITION AND FOOD AND BEVERAGE” (TAKASAGO INTERNATIONAL CORPORATION, priority 2021, published 2025)

How the values were obtained:
[1] = Sensory evaluation of aqueous solution VI containing 1,5-octadien-3-ol 10 ppb: off-flavor intensity and masking component intensity; settings: aqueous solution VI, average panel score
Description: (§1) In ion-exchanged water, each degradation component was added to achieve the concentrations listed in Table 1, and aqueous solutions I to VI containing these degradation components were prepared.
(§2) For the aforementioned aqueous solutions containing degradation components, nootkatone was added at the concentrations listed in Table 2 to confirm the intensity of the off-flavor (masking effect) in each sample and the intensity of the masking component itself (the impact on the flavor of the food and/or beverage itself).
(§3) The test was conducted as follows. Eight experienced panelists were selected to conduct a sensory evaluation. The intensity of the off-flavor of the aqueous solution containing the degradation components derived from unsaturated fatty acids, without added masking components, was set as “Evaluation: 4.” The ion-exchanged water free of any degradation components was set as “Evaluation: 0.” The intensity of the off-flavor (masking effect) of each sample was then relatively evaluated according to the following evaluation criteria.
(§4) • Off-flavor is strongly sensed: 4 points • Off-flavor is sensed: 3 points • Off-flavor is slightly sensed: 2 points • Off-flavor is barely sensed: 1 point • Off-flavor is not sensed at all: 0 points
(§5) Also, the intensity of the masking components (impact on the flavor of the food and/or beverage itself) was absolutely evaluated according to the following evaluation criteria.
(§6) • Masking component is strongly sensed: 4 points • Masking component is sensed: 3 points • Masking component is slightly sensed: 2 points • Masking component is barely sensed: 1 point • Masking component is not sensed at all: 0 points

[2] = Sensory evaluation of aqueous solution I containing (E)-2-nonenal 1 ppb: off-flavor intensity and masking component intensity; settings: average panel score
Description: as §1, §2, §3, §4, §5, §6

[3] = Sensory evaluation of aqueous solution IV containing 1,5-octadien-3-one 100 ppt: off-flavor intensity and masking component intensity; settings: aqueous solution IV, average panel score
Description: as §1, §2, §3, §4, §5, §6

[4] = Overall conclusion of the sensory evaluation across aqueous solutions I to VI
Description: as §1, §2, §3, §4, §5, §6

[5] = Sensory evaluation of aqueous solution II containing (E)-2-octenal 10 ppb: off-flavor intensity and masking component intensity; settings: average panel score
Description: as §1, §2, §3, §4, §5, §6

[6] = Sensory evaluation of aqueous solution V containing 1-octen-3-ol 10 ppb: off-flavor intensity and masking component intensity; settings: average panel score
Description: as §1, §2, §3, §4, §5, §6

[7] = Sensory evaluation of aqueous solution III containing 1-octen-3-one 1 ppb: off-flavor intensity and masking component intensity; settings: average panel score
Description: as §1, §2, §3, §4, §5, §6

Compound: CC(C)C=C(C=O)c1ccccc1 [4-methyl-2-phenyl-2-pentenal]
- Masking Component Intensity ([1]; 1 ppb added): 0.3
- Off-Flavor Intensity ([1]; 1 ppb added): 1.8
- Masking Component Intensity ([1]; 1 ppm added): 1.8
- Off-Flavor Intensity ([1]; 1 ppm added): 0.9
- Masking Component Intensity ([1]; 5 ppm added): 2.4
- Off-Flavor Intensity ([1]; 5 ppm added): 0.4
- Masking Component Intensity ([1]; 10 ppb added): 0.8
- Off-Flavor Intensity ([1]; 10 ppb added): 1.4
- Masking Component Intensity ([1]; 10 ppm added): 3.1
- Off-Flavor Intensity ([1]; 10 ppm added): 0.4
- Masking Component Intensity ([1]; 50 ppm added): 3.5
- Off-Flavor Intensity ([1]; 50 ppm added): 0.1
- Masking Component Intensity ([1]; 100 ppb added): 1.3
- Off-Flavor Intensity ([1]; 100 ppb added): 1.0
- Masking Component Intensity ([1]; 100 ppt added): 0.0
- Off-Flavor Intensity ([1]; 100 ppt added): 2.1
- Masking Component Intensity ([2]; 1 ppb added): 0.5
- Off-Flavor Intensity ([2]; 1 ppb added): 2.8
- Masking Component Intensity ([2]; 1 ppm added): 1.9
- Off-Flavor Intensity ([2]; 1 ppm added): 1.6
- Masking Component Intensity ([2]; 5 ppm added): 2.9
- Off-Flavor Intensity ([2]; 5 ppm added): 1.1
- Masking Component Intensity ([2]; 10 ppb added): 0.9
- Off-Flavor Intensity ([2]; 10 ppb added): 2.3
- Masking Component Intensity ([2]; 10 ppm added): 3.8
- Off-Flavor Intensity ([2]; 10 ppm added): 0.5
- Masking Component Intensity ([2]; 50 ppm added): 4.0
- Off-Flavor Intensity ([2]; 50 ppm added): 0.3
- Masking Component Intensity ([2]; 100 ppb added): 1.4
- Off-Flavor Intensity ([2]; 100 ppb added): 1.8
- Masking Component Intensity ([2]; 100 ppt added): 0.4
- Off-Flavor Intensity ([2]; 100 ppt added): 3.3
- Masking Component Intensity ([3]; 1 ppb added): 0.4
- Off-Flavor Intensity ([3]; 1 ppb added): 3.6
- Masking Component Intensity ([3]; 1 ppm added): 1.9
- Off-Flavor Intensity ([3]; 1 ppm added): 2.3
- Masking Component Intensity ([3]; 5 ppm added): 2.3
- Off-Flavor Intensity ([3]; 5 ppm added): 2.0
- Masking Component Intensity ([3]; 10 ppb added): 1.0
- Off-Flavor Intensity ([3]; 10 ppb added): 3.0
- Masking Component Intensity ([3]; 10 ppm added): 3.0
- Off-Flavor Intensity ([3]; 10 ppm added): 1.4
- Masking Component Intensity ([3]; 50 ppm added): 3.6
- Off-Flavor Intensity ([3]; 50 ppm added): 1.0
- Masking Component Intensity ([3]; 100 ppb added): 1.4
- Off-Flavor Intensity ([3]; 100 ppb added): 2.6
- Masking Component Intensity ([3]; 100 ppt added): 0.3
- Off-Flavor Intensity ([3]; 100 ppt added): 3.6
- concentration that masks the off-flavor and does not affect the flavor of the food and/or beverage itself, lower limit [4]: ≥ 100 ppt
- concentration that masks the off-flavor and does not affect the flavor of the food and/or beverage itself, upper limit [4]: ≤ 10 ppm
- Masking Component Intensity ([5]; 1 ppb added): 0.5
- Off-Flavor Intensity ([5]; 1 ppb added): 2.8
- Masking Component Intensity ([5]; 1 ppm added): 2.1
- Off-Flavor Intensity ([5]; 1 ppm added): 1.6
- Masking Component Intensity ([5]; 5 ppm added): 2.6
- Off-Flavor Intensity ([5]; 5 ppm added): 1.4
- Masking Component Intensity ([5]; 10 ppb added): 1.1
- Off-Flavor Intensity ([5]; 10 ppb added): 2.5
- Masking Component Intensity ([5]; 10 ppm added): 3.4
- Off-Flavor Intensity ([5]; 10 ppm added): 1.0
- Masking Component Intensity ([5]; 50 ppm added): 3.9
- Off-Flavor Intensity ([5]; 50 ppm added): 0.6
- Masking Component Intensity ([5]; 100 ppb added): 1.6
- Off-Flavor Intensity ([5]; 100 ppb added): 2.0
- Masking Component Intensity ([5]; 100 ppt added): 0.4
- Off-Flavor Intensity ([5]; 100 ppt added): 3.0
- Masking Component Intensity ([6]; 1 ppb added): 0.8
- Off-Flavor Intensity ([6]; 1 ppb added): 2.3
- Masking Component Intensity ([6]; 1 ppm added): 2.4
- Off-Flavor Intensity ([6]; 1 ppm added): 1.1
- Masking Component Intensity ([6]; 5 ppm added): 2.8
- Off-Flavor Intensity ([6]; 5 ppm added): 0.8
- Masking Component Intensity ([6]; 10 ppb added): 1.4
- Off-Flavor Intensity ([6]; 10 ppb added): 1.8
- Masking Component Intensity ([6]; 10 ppm added): 3.5
- Off-Flavor Intensity ([6]; 10 ppm added): 0.6
- Masking Component Intensity ([6]; 50 ppm added): 3.9
- Off-Flavor Intensity ([6]; 50 ppm added): 0.5
- Masking Component Intensity ([6]; 100 ppb added): 1.6
- Off-Flavor Intensity ([6]; 100 ppb added): 1.6
- Masking Component Intensity ([6]; 100 ppt added): 0.6
- Off-Flavor Intensity ([6]; 100 ppt added): 2.8
- Masking Component Intensity ([7]; 1 ppb added): 0.9
- Off-Flavor Intensity ([7]; 1 ppb added): 3.4
- Masking Component Intensity ([7]; 1 ppm added): 2.5
- Off-Flavor Intensity ([7]; 1 ppm added): 2.1
- Masking Component Intensity ([7]; 5 ppm added): 3.0
- Off-Flavor Intensity ([7]; 5 ppm added): 1.8
- Masking Component Intensity ([7]; 10 ppb added): 1.4
- Off-Flavor Intensity ([7]; 10 ppb added): 3.1
- Masking Component Intensity ([7]; 10 ppm added): 3.5
- Off-Flavor Intensity ([7]; 10 ppm added): 1.6
- Masking Component Intensity ([7]; 50 ppm added): 3.8
- Off-Flavor Intensity ([7]; 50 ppm added): 1.3
- Masking Component Intensity ([7]; 100 ppb added): 1.8
- Off-Flavor Intensity ([7]; 100 ppb added): 2.6
- Masking Component Intensity ([7]; 100 ppt added): 0.5
- Off-Flavor Intensity ([7]; 100 ppt added): 3.6
